US10441562B2, “Aromatic farnesyl compound and application thereof” (INSTITUTE OF MICROBIOLOGY, CHINESE ACADEMY OF SCIENCES, priority 2015, dated 2019)
Like-named read-outs stand apart in the source and are kept apart here.

Legend:
Format in all cases: biochemical
[1] = target: T1, α-glucosidase (Saccharomyces cerevisiae, UniProt P53341); assay: α-glucosidase inhibitory activity test in vitro
T1 construct: purchased Sigma Corporation G5003
Procedure: Add 25 μL α-glucosidase water solution (0.2 U/mL) and 175 μL phosphate buffer (50 mM, pH 7.0) into 25 μL different concentration of the above test solutions. The mixed solution is standed for 10 min at room temperature, and then 25 μL 4-nitrophenyl-α-D-glucopyranoside water solution (2.5 mM) is added into the mixed solution. After the solution is incubated at 37 °C for 30 min and centrifuged at 5000 rpm for 5 minutes, 150 uL supernatant is added into 96-well plates and the absorbance is detected at 405 nm.
Blank group: the test solution is replaced by 25 μL phosphate buffer (50 mM, pH 7.0); blank control group: the test solution is replaced by 25 μL phosphate buffer (50 mM, pH 7.0), meanwhile α-glucosidase water solution is replaced by 25 μL phosphate buffer (50 mM, pH 7.0); sample control group: α-glucosidase water solution is replaced by 25 μL phosphate buffer (50 mM, pH 7.0).
(§1) Repeat each of the above experiment groups for 3 times, and then average the results.
IC50=[CL(IH−50)+CH(50−IL)]/(IH−IL) CL: low concentration value; CH: high concentration value; IH: inhibition rate in high concentration; IL: inhibition rate in low concentration

[2] = target: T2, protein tyrosine phosphatase 1B (PTP-1B) (Homo sapiens, UniProt P18031); assay: PTP-1B inhibitory activity test in vitro
T2 sequence (P18031 1-435): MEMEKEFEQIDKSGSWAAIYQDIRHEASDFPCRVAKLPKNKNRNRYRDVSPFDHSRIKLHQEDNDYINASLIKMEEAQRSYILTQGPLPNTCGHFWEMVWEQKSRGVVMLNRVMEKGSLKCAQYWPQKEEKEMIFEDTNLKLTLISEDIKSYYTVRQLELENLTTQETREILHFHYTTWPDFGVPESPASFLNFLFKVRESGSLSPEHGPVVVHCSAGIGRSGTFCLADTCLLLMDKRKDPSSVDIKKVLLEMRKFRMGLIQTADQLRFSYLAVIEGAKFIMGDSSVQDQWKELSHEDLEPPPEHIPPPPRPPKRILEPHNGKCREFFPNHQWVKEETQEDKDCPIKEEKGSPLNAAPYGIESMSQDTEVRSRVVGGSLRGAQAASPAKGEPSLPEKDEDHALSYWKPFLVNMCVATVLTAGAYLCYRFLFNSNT
Procedure: Experimental procedure: the following reagents are added into 96-well plates in sequence and the mixture ratios of different groups are as followings: Test group: 50 μL compound solution+50 μL 170 μg/mL PTP-1B solution […] Blank group: 50 μL buffer solution+50 μL 170 μg/mL PTP-1B solution Background group: 50 μL compound solution+50 μL buffer solution After adding the reagents, the 96-well plate is […] for 10 min at room temperature to make the compound and the enzyme react completely. Add 50 μL 1 mM pNPP solution which is used as substrate and incubate the mixed solution at 37 °C for 30 min. Then add 50 μL 3M NaOH into each well of the plate to stop the reaction and the optical density is detected at […].

[3] = target: T3, HMG-CoA reductase (Homo sapiens, UniProt P04035); assay: HMG-CoA reductase inhibitory activity test in vitro
T3 sequence (P04035 426-888 limits assumed): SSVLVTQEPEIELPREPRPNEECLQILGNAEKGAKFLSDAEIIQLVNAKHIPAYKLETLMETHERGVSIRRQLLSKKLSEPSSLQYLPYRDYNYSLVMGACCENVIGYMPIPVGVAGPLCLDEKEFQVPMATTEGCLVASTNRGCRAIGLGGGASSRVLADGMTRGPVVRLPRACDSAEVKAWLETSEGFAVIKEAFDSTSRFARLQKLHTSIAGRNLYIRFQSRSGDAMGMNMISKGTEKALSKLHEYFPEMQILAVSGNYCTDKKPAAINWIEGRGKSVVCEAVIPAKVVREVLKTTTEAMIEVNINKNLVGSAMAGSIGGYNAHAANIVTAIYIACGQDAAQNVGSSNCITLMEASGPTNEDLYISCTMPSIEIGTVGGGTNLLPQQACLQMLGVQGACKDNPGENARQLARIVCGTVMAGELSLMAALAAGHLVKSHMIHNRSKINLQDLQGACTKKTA
Procedure: Add 25 μL HMG-CoA reductase water solution (0.2 U/mL), 25 μL NADPH water solution (0.2 U/mL) and 24 μL phosphate buffer (50 mM, pH 7.0) into 1 μL different concentration of the above test solution. The mixed solution is standed for 10 min at room temperature, and then 25 μL HMG-CoA is added into the mixed solution. After the solution is incubated at 37∞ for 30 min and centrifuged at 5000 rpm for 5 minutes, 80 uL supernatant is added into 96-well plates and the absorbance is detected at 550 nm.
as §1

[4] = target: aldose reductase (Homo sapiens, UniProt P15121); assay: aldose reductase inhibitory activity test in vitro
Procedure: Experimental procedure: the following reagents are added into 96-well plates in sequence and the mixture ratios of different groups are as followings:
Test group: 10 μL compound solution+25 μL (0.1 mM) NADPH solution+25 μL PBS buffer solution+15 μL aldose reductase diluent
Blank group: 25 μL (0.1 mM) NADPH solution+35 μL PBS buffer solution+15 μL aldose reductase diluent
Background group: 25 μL (0.1 mM) NADPH solution+60 μL PBS buffer solution+15 μL aldose reductase diluent
After adding the reagents, the 96-well plate is standed for 10 min at room temperature to make the compound and the enzyme react completely. Add 25 μL 10 mM D, L glyceraldehyde solution which is used as substrate into the groups except for background group, and incubate the solution at 37 °C for 30 min. Then detect the optical density of each well at 340 nm.

[5] = target: T4, dipeptidyl peptidase-4 (Homo sapiens, UniProt P27487); assay: dipeptidyl peptidase-4 inhibitory activity test in vitro (DPP-4 inhibitor screening kit)
T4 construct: purchased
T4 sequence (P27487 whole entry, species assumed): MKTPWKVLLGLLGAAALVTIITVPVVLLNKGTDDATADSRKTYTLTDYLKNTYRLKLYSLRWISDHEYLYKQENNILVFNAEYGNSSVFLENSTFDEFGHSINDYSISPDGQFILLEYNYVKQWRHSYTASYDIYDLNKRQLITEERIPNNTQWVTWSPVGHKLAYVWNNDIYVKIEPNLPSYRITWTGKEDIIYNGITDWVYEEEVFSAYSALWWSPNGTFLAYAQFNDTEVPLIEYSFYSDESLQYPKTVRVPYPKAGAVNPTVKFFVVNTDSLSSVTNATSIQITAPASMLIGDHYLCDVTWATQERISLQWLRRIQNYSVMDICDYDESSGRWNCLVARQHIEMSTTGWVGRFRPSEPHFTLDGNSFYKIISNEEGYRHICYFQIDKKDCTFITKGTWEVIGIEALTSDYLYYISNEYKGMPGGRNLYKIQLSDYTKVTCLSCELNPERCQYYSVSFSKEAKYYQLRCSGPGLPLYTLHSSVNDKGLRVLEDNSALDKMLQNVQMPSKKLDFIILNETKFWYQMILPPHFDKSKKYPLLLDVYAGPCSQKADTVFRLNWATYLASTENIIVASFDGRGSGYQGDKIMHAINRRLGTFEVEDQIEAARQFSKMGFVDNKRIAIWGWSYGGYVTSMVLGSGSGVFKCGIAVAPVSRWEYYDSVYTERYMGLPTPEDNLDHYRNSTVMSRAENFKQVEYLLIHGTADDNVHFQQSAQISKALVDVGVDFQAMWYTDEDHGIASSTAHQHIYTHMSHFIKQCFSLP
Text: The above compounds are detected by DPP-4 inhibitor screening kit.

[6] = read-out: α-glucosidase inhibitory activity (IC50)

T1 sequence (P53341 whole entry): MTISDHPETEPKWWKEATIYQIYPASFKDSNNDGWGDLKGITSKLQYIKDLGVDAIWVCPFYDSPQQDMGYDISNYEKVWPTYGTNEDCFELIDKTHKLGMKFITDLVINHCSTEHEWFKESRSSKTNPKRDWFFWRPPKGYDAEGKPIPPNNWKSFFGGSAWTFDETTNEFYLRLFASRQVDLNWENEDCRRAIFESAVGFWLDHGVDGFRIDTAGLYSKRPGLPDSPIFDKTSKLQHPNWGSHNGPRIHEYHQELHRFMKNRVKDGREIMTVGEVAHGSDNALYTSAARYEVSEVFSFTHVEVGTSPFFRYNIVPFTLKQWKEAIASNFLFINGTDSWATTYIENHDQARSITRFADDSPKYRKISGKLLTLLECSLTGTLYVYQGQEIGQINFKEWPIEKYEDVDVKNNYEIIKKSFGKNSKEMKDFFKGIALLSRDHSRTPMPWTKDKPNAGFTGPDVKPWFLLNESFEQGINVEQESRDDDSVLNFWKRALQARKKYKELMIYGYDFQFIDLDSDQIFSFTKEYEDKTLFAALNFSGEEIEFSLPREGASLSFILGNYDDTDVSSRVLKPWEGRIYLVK

Row | SMILES | IC50 [1, 6] | IC50 [2] | IC50 [3] | IC50 [4] | IC50 [5] | IC50 [1]
1 | CC(C)=CCC/C(C)=C/CCC1=C[C@H](c2ccccc2)OC1=O [S1, (R,E)-3-(4,8-dimethylnona-3,7-dien-1-yl)-5-phenylfuran-2 (5H)-one] | 0.18 µM | 10.5 µM | 3.8 µM | 56.1 µM | 12.2 µM | 
2 | CC(C)=CCC/C(C)=C/CCC1=C[C@H](c2ccc3ccccc3c2)OC1=O [S2] | 7.4 µM | 13.1 µM | 49.8 µM | 19.8 µM | 12.5 µM | 
3 | COCOc1ccccc1[C@H]1C=C(CC/C=C(\C)CCC=C(C)C)C(=O)O1 [S3] | 8.65 µM | 7.8 µM | 8.9 µM | 38.3 µM | 14.5 µM | 
4 | CC(C)=CCC/C(C)=C/CCC1=C[C@H](c2ccccc2O)OC1=O [S4, (R,E)-3-(4,8-dimethylnona-3,7-dien-1-yl)-5-(2-hydroxyphenyl)furan-2 (5-H)-one] | 0.21 µM | 11.1 µM | 4.7 µM | 23.5 µM | 21.2 µM | 
5 | CC(C)=CCC/C(C)=C/CCC1=C[C@H](c2ccccc2[N+](=O)[O-])OC1=O [S5, (R,E)-3-(4,8-dimethylnona-3,7-dien-1-yl)-5-(2-nitrophenyl)furan-2(5H)-one] | 0.09 µM | 5.3 µM | 18.9 µM | 8.5 µM | 20.9 µM | 
6 | CC(C)=CCC/C(C)=C/CCC1=C[C@H](c2ccc(C)cc2)OC1=O [S6, (R,E)-3-(4,8-dimethylnona-3,7-dien-1-yl)-5-(p-tolyl)furan-2(5H)-one] | 1.06 µM | 5.6 µM | 8.1 µM | 63.2 µM | 31.5 µM | 
7 | CCc1ccc([C@H]2C=C(CC/C=C(\C)CCC=C(C)C)C(=O)O2)cc1 [S7, (R,E)-3-(4,8-dimethylnona-3,7-dien-1-yl)-5-(4-ethylphenyl)furan-2(5H)-one] | 0.58 µM | 15.5 µM | 4.2 µM | 59 µM | 9.2 µM | 
8 | CC(C)=CCC/C(C)=C/CCC1=C[C@H](c2ccc(C(C)C)cc2)OC1=O [S8, (R,E)-3-(4,8-dimethylnona-3,7-dien-1-yl)-5-(4-isopropylphenyl)furan-2(5H)-one] | 56.2 µM | 12.7 µM | > 100 µM | 84.4 µM | 9.4 µM | 
9 | CC(C)=CCC/C(C)=C/CCC1=C[C@H](c2ccc(C(C)(C)C)cc2)OC1=O [S9, (R,E)-5-(4-(tert-butyl)phenyl)-3-(4,8-dimethylnona-3,7-dien-1-yl)furan-2 (5H)-one] | 0.16 µM | 15.8 µM | 16.4 µM | 1.4 µM | 19.1 µM | 
10 | COc1ccc([C@H]2C=C(CC/C=C(\C)CCC=C(C)C)C(=O)O2)cc1 [S10, (R,E)-3-(4,8-dimethylnona-3,7-dien-1-yl)-5-(4-methoxyphenyl)furan-2(5H)-one] | > 50 µM | 10.1 µM | 1.2 µM | > 100 µM | 18.2 µM | 
11 | CC(C)=CCC/C(C)=C/CCC1=C[C@H](c2ccc([N+](=O)[O-])cc2)OC1=O [S11, (R,E)-3-(4,8-dimethylnona-3,7-dien-1-yl)-5-(4-nitrophenyl)furan-2(5H)-one] | 34.2 µM | 8.1 µM | 7.4 µM | 4.9 µM | 10.2 µM | 
12 | COc1ccc(OC)c([C@H]2C=C(CC/C=C(\C)CCC=C(C)C)C(=O)O2)c1 [S12, (R,E)-5-(2,5-dimethoxyphenyl)-3-(4,8-dimethylnona-3,7-dien-1-yl)furan-2(5H)-one] | 11.5 µM | 11.8 µM | 4.4 µM | 26.1 µM | 8.8 µM | 
13 | CC(C)=CCC/C(C)=C/CCC1=C[C@H](c2c(F)cccc2F)OC1=O [S14, (R,E)-5-(2,6-difluorophenyl)-3-(4,8-dimethylnona-3,7-dien-1-yl)furan-2(5H)-one] | 3.72 µM | 3.7 µM | 25.1 µM | 32.1 µM | 24.5 µM | 
14 | CC(C)=CCC/C(C)=C/CCC1=C[C@H](c2cc(F)c(F)c(F)c2)OC1=O [S15, (R,E)-3-(4,8-dimethylnona-3,7-dien-1-yl)-5-(3,4,5-trifluorophenyl)furan-2(5H)-one] | 1.27 µM | 25.4 µM | 38.2 µM | 54.9 µM | 12.1 µM | 
15 | CC(C)=CCC/C(C)=C/CCC1=C[C@@H](c2ccc3ccccc3c2)OC1=O [S17, (S,E)-3-(4,8-dimethylnona-3,7-dien-1-yl)-5-(naphthalen-2-yl)furan-2 (5H)-one] | 6.32 µM | 10.1 µM | 42.2 µM | 20.2 µM | 13.6 µM | 
16 | COCOc1ccccc1[C@@H]1C=C(CC/C=C(\C)CCC=C(C)C)C(=O)O1 [S18, (S,E)-3-(4,8-dimethylnona-3,7-dien-1-yl)-5-(2-(methoxymethoxy)phenyl) furan-2(5H)-one] | 8.2 µM | 8.2 µM | 6.2 µM | 40.2 µM | 14.4 µM | 
17 | CC(C)=CCC/C(C)=C/CCC1=C[C@@H](c2ccccc2O)OC1=O [S19, (S,E)-3-(4,8-dimethylnona-3,7-dien-1-yl)-5-(2-hydroxyphenyl)furan-2(5H)-one] | 0.52 µM | 11.5 µM | 5.5 µM | 25.4 µM | 20.2 µM | 
18 | CC(C)=CCC/C(C)=C/CCC1=C[C@@H](c2ccccc2[N+](=O)[O-])OC1=O [S20, (S,E)-3-(4,8-dimethylnona-3,7-dien-1-yl)-5-(2-nitrophenyl)furan-2(5H)-one] | 0.21 µM | 4.7 µM | 13.8 µM | 9.5 µM | 20.8 µM | 
19 | CC(C)=CCC/C(C)=C/CCC1=C[C@@H](c2ccc(C)cc2)OC1=O [S21, (S,E)-3-(4,8-dimethylnona-3,7-dien-1-yl)-5-(p-tolyl)furan-2(5H)-one] | 1.03 µM | 5.8 µM | 12.5 µM | 55.1 µM | 16.5 µM | 
20 | CC(C)c1c(C(=O)Nc2ccccc2)c(-c2ccccc2)c(-c2ccc(F)cc2)n1CC[C@@H](O)C[C@@H](O)CC(=O)O [atorvastatin, reference compound] |  |  |  |  |  | 273 µM
